pIC50: −log10 of the molar value. One block for each compound: values may come before it.
Legend:
[1] = system: membrane bound human TNFα; experiment: Inhibition of membrane bound human TNFα induced cytotoxicity in L929 cells; type: cell-based; details: average of 3 independent experiments+/−SEM; read-out: IC50, killing of L929 cells by human non-cleavable membrane bound TNFα CHO cells
Experimental: The non-cleavable TNFα construct is stably transfected to Chinese hamster ovary (CHO) cells. These cells express membrane bound TNFα as shown by flow cytometry. Incubation of L929 cells with CHO cells expressing human non-cleavable membrane bound TNFα results in rapid L929 cell death.
CHO cells expressing membrane bound human TNFα are routinely maintained in selection medium (AM2001 media, an internal CHO growth media without MSX, 8 mM glutamine, GS supplement, HT supplement with 500 μg/mL G418). On the day of the assay, the cells are counted, rinsed with 1×PBS (no Ca^++ or Mg^++), centrifuged at 215×g for 5 mM and re-suspended at 50,000 cells/mL in L929 assay medium together with Actinomycin-D (6.25 μg/mL). 500 cells (in 10 μL) of cell suspension are added to each concentration of antibody mixtures that were incubated for 60 minutes at 37° C., 95% relative humidity, 5% CO2. […] The cell death is measured using an MTT cytotoxicity assay as described above for soluble TNFα L929 assay.

human TNFα = human TNFα (Homo sapiens, UniProt P01375); experiment: Inhibition of human TNFα-induced production of CXCL1 in vivo; set-up: species or system mouse; details: C57BI/6J mice; 16.7 nmol/kg subcutaneously; TNFα challenge two days later; plasma two hours after challenge
Experimental: Two days later, mice receive a single intraperitoneal injection of human IL-17 (3 μg/mouse) or human TNFα (1 μg/mouse). Two hours after cytokine challenge, the mice are sacrificed and plasma is analyzed for CXCL1 using a commercial ELISA.

[2] = system: human TNFα and human IL-17; experiment: Inhibition of CXCL1 production from HT-29 cells induced by combination of IL-17 and TNF; type: cell-based; details: antibodies at fixed dose of 4 nM, 3 pM TNFα and 200 pM IL-17
Experimental: As described above, HT-29 cells are human colorectal adenocarcinoma epithelial cells that naturally express the IL-17 and TNF receptors. Incubation of HT-29 cells with human TNFα and human IL-17 results in the production of CXCL1, which can be measured using a commercially available ELISA.
Testing is carried out in five replicate wells per treatment. Assay medium is used for “medium alone” and “IL-17+TNF alone”. Anti-IL-17 antibody (U.S. Pat. No. 7,838,638); anti-TNFα antibody (adalimumab); and combination of anti-IL-17 antibody/anti-TNF antibody are used as controls in the assay. Control antibodies are tested at the same molar range as the bispecific antibody. […]
HT-29 cells are routinely cultured in assay medium [McCoy's 5A containing 10% FBS, penicillinG (0.2 U/mL) and streptomycin (0.2 mcg/mL)]. […] Cell density is measured with Invitrogen Countess, and 20,000 HT-29 cells (in 100 μL) are added to each of the 96-well plates. […]
At the end of the assay, the plates are centrifuged (500×g for 5 minutes at room temperature), and the cell culture medium is transferred to polypropylene 96-well plates, which are sealed and frozen at −80° C. […] CXCL1 levels in medium are measured with a CXCL1 sandwich ELISA (R&D Systems DuoSet #DY275), as per the manufacturer's instructions. At the end of the ELISA reactions, plates are read at 450 nm on a microplate reader (Molecular Devices VersaMax Tunable).

[3] = system: human skin grafts on immunodeficient mice; experiment: Humanized psoriasis mouse model (human skin grafts, PBMC injection); type: in vivo; details: twice daily topical; after three weeks
From the text: A humanized mouse model of psoriasis is a model that involves grafting of human non-lesional skin biopsies from psoriasis patients onto the back skin of immunodeficient mice. After the human skin has grafted (3 to 4 weeks later), T-cell activated human peripheral blood mononuclear cells (PBMCs) from the same donor are intradermally injected into the graft to induce psoriasis-like epidermal thickening (Wrone-Smith and Nickoloff J., Clin Invest. 15; 98(8):1878-87 (1996)).
After three weeks the mice are euthanized, the grafted skin was isolated, and the thickness of the epidermis is measured.

membrane bound human TNFα, sequence (P01375 89-233 limits assumed): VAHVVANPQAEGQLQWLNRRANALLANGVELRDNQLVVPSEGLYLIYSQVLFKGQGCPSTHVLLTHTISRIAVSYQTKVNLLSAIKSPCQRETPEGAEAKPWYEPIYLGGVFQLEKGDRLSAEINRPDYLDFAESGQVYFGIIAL
human TNFα, sequence (P01375 77-233 limits assumed): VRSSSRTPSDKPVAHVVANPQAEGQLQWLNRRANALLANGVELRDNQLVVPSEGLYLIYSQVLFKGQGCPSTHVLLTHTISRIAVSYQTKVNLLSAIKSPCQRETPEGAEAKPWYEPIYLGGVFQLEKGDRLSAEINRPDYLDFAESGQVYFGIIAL

Average % inhibition of human TNFα-induced CXCL1 production in vivo (human TNFα): 89.4 ± 2%
Compound: adalimumab with IgG4 isotype: TNFα neutralizing antibody (adalimumab with IgG4 isotype), positive control in L929 assays and in vivo CXCL1 (Table 2)
pIC50 [1]: 9.17

Compound: adalimumab [anti-TNFα]
percent human CXCL1 left after incubation (TNF+IL-17 alone being 100%) [2]: 8.97+/−2.65%

Compound: C[C@H]1C[C@H]2[C@@H]3CCC4=CC(=O)C=C[C@]4(C)[C@@]3(F)[C@@H](O)C[C@]2(C)[C@@]1(O)C(=O)CO [Betamethasone, betamethasone]
Mean Epidermal Thickness [3]: 74.9 μm

— patent US9416182B2, “Anti-TNF-anti-IL-17 bispecific antibodies” (Eli Lilly and Company, priority 2013, dated 2016)
